In patent US7541342B2, “Use of PKC-activating compounds as cardioprotectants and as apoptosis-inducing anti-tumor agents” (University of Tennessee Research Foundation, priority 2005, dated 2009):
Where two headings read alike, the source gives them in different places.

What was measured:
PKC-δ [1] = experiment: PKC translocation immunoblot in primary cardiomyocytes; type: cell-based, rat; details: 0.1 μM, within 5 min
Source text: (§1) FIG. 22 is an immunoblot analysis of PKC translocation in drug-treated rat cardiomyocytes. […] Total membrane fractions were isolated by differential centrifugation in the absence of non-ionic detergent, subjected to SDS-PAGE and prepared for immunoblot analysis using antibodies against the PKC isoforms.

PKC-ε = experiment: as above; type: cell-based, rat; details: 0.1 μM
Source text: as §1

PKC-α = experiment: as above; type: cell-based, rat; details: 0.1 μM, 5 min
Source text: as §1

[2] = tested on: neonatal rat ventricular myocytes (NRVM); experiment: Mitochondrial redox activity (MTT) in anti-erbB-2 antibody treated NRVM; details: 200 nM drug 1 hr prior to anti-erbB-2 antibody
32D.3 cells = experiment: Mitochondrial membrane depolarization ([…] staining); type: cell-based, murine; details: 5 μM for 3 hr
[3] = tested on: hearts of wild type and PKC-ε KO mice; experiment: Langendorff perfused heart, wild type and PKC-ε knockout mice; parameters: species or system mouse; details: 0.1 μM
Procedure: (§2) Perfusion studies were performed as described previously. See Pyle et al., Am. J. Physiol. Heart Circ. Physiol., 279, H1941-1948 (2000). Briefly, hearts were removed from methoxyflurane-anesthetized adult female Wistar rats, female C57 mice or progeny of C57B1/6J×129SvJae F1 heterozygous mice (provided by Dr. Robert O. Messing, University of California, San Francisco, Calif., United States of America; see also Jin, Z. Q. et al., Am. J. Physiol. Heart, Circ. Physiol., 282, H1970-1977 (2002)) bred to produce homozygous PKC-ε^−/−. Isolated hearts were cannulated in ice-cold modified Krebs-Henseleit buffer (4.7 mM KCl, 118 mM NaCl, 1.2 mM MgSO4, 1.3 mM CaCl2, 25 mM NaHCO3, 11 mM glucose, 1.2 mM KH2PO4, 0.05 mM EDTA, 2 mM lactic acid, pH 7.4) and then mounted on a Langendorff perfusion apparatus.
(§3) While mounted, hearts were placed in a 100 mL bath of oxygenated (95% O2/5% CO2), 37° C. modified Krebs-Henseleit buffer and perfused with the same at a pressure equal to 100 cm H2O. […] Pre-ischemic LVDP was calculated as the pressure difference between peak systolic pressure and EDP.
(§4) Baseline perfusion or drug perfusion in Modified Krebs-Henseleit buffer was carried out for 20 min followed by a 2-5 min washout of the perfused heart with Modified Krebs-Henseleit buffer plus vehicle. […] Post-ischemic LVDP was determined by averaging the last 10 min of post-ischemic reperfusion. […]

PKCs-α and -β = experiment: PKC translocation immunoblot in K562 cells; details: 3 μM AD 198
[4] = tested on: neonatal rat ventricular myocytes (NRVM); experiment: ATP content (luciferin/luciferase) in anti-erbB-2 antibody treated NRVM; details: 200 nM drug 1 hr prior to anti-erbB-2 antibody
C57 mouse hearts = experiment: Langendorff perfused heart, global ischemia/reperfusion; details: 0.1 μM
Procedure: as §2, §3, §4

[5] = i.v. single dose LD50 (30 days); details: female, CD1, mouse, in vivo, iv
cardiomyocytes = experiment: Monitoring of ROS generation (CM-H2DCFDA oxidation); type: cell-based, rat; details: 2.0 μM DOX, 2.0 μM AD 198 or 3.0 μM H2O2 for 2 hr
Source text: Primary murine cardiocyocytes from female C57 mice (Harlan, Indianapolis, Ind., United States of America) isolated as described by Lester, J. W., et al. (Am. J. Physiol. Heart Circ. Physiol., 271, H1778-J1785 (1996)), were preloaded with 5-(and-6)-chloromethyl-2′,7′-dichlorodihydrofluorescein diacetate, acetyl ester (CM-H2DCFDA; Molecular Probes, Eugene, Oreg., United States of America) in PBS for 1 hr, followed by removal of PBS and replacement with warm RPMI-1640 medium with 10% FBS. […] Cellular fluorescence was quantified by flow cytometry at an […] wavelength of 525 nm.

[6] = In vivo drug distribution to heart; details: 2.5 mg/kg i.v. bolus, 5 min to 24 hr
PKC-δ [7] = experiment: PKC translocation immunoblot in K562 cells; details: 3 μM AD 198
[8] = in vivo; for Affected Hearts (%) / MTS: female, CD1, mouse, iv, 7 weeks

Structure (SMILES): CCCCC(=O)OCC(=O)[C@]1(O)Cc2c(O)c3c(c(O)c2[C@@H](O[C@H]2C[C@H](NCc4ccccc4)[C@H](O)[C@H](C)O2)C1)C(=O)c1c(OC)cccc1C3=O [AD 198, N-benzyladriamycin-14-valerate]
- translocation of PKC-δ (PKC-δ [1]): Marginal translocation
- increase in membrane-associated PKC-ε versus DMSO (PKC-ε; 5 min exposure): 5 fold
- decrease of membrane-associated PKC-ε (PKC-ε; after 30 min): approximately 50%
- translocation of PKC-α (PKC-α): no translocation
- protection from anti-erbB-2-mediated depletion of redox activity (MTT) [2]: protected
- cells with diminished punctate fluorescence and cell shrinkage (32D.3 cells): approximately 75%
- protection versus control (DMSO) [3]: not afforded significant protection
- translocation of PKCs-α and -β to membrane fractions (PKCs-α and -β): not translocated
- ATP depletion by anti-erbB-2 antibody after drug pretreatment [4]: 39%
- Mean LVDP ± std. Error, Post-Ischemic (C57 mouse hearts): 41.0 ± 5.9 mm Hg
- Mean LVDP ± std. Error, Pre-Ischemic (C57 mouse hearts): 69.8 ± 13.6 mm Hg
- LD50 at 30 days [5]: 46 mg/kg
- increase in CM-H2DCFDA fluorescence (cardiomyocytes): 44 fold
- drug uptake into the heart [6]: not due to low drug uptake into the heart
- time to detection of PKC-δ translocation to membrane (PKC-δ [7]): ≤ 1 h
- Affected Hearts (%) ([8]; 2.3 mg/kg): 20%
- MTS ([8]; 2.3 mg/kg): 0.1
- Affected Hearts (%) ([8]; 4.6 mg/kg): 40%
- MTS ([8]; 4.6 mg/kg): 0.3
- Affected Hearts (%) ([8]; 9.2 mg/kg): 20%
- MTS ([8]; 9.2 mg/kg): 0.1
- cardiotoxicity at chronic dosing levels sufficient for DOX-induced cardiotoxicity ([8]; mouse): non-cardiotoxic
